Columns and labels:
Assay type in all cases: in vivo
[1] = Sweetness comparison procedure against sucrose reference solutions, trained sensory evaluators; settings: determined at approximately 8% SEV
Method: The S,S stereoisomer of monatin is approximately 50-200 times sweeter than sucrose by weight. The R,R stereoisomer of monatin is approximately 2000-2400 times sweeter than sucrose by weight. The sweetness of the monatin is calculated using experienced sensory evaluators in a sweetness comparison procedure, where a test sweetener solution is matched for sweetness intensity against one of a series of reference solutions. The solutions may be prepared, for example, using a buffer comprising 0.16% (w/v) citric acid and 0.02% (w/v) sodium citrate at ˜pH 3.0.
Specifically, one may assess sweetness of a sweetener relative to sucrose by using a panel of trained sensory evaluators experienced in the sweetness estimation procedure. All samples (in same buffers) are served in duplicate at a temperature of 22° C. ±1° C. Sample solutions may be prepared, for example, using a buffer comprising 0.16% (w/v) citric acid and 0.02% (w/v) sodium citrate at ˜pH 3.0. Test solutions, coded with 3 digit random number codes, are presented individually to panelists, in random order. Sucrose reference standards, ranging from 2.0-10.0% (w/v) sucrose, increasing in steps of 0.5% (w/v) sucrose are also provided. Panelists are asked to estimate sweetness by comparing the sweetness of the test solution to the sucrose standards. This is carried out by taking 3 sips of the test solution, followed by a sip of water, followed by 3 sips of sucrose standard followed by a sip of water, etc. Panelists estimate the sweetness to one decimal place, e.g., 6.8, 8.5. A five minute rest period is imposed between evaluating the test solutions. Panelists are also asked to rinse well and eat a cracker to reduce any potential carry over effects.
Sucrose equivalent value (SEV) (e.g., % sucrose), determined by the panel of trained sensory evaluators, is plotted as a function of monatin concentration to obtain a dose response curve. A polynomial curve fit is applied to the dose response curve and used to calculate the sweetness intensity or potency at a particular point, e.g., 8% SEV, by dividing the sucrose equivalent value (SEV) by the monatin concentration (e.g., % monatin). See e.g., FIG. 15 (R,R/S,S monatin dose response curve); FIG. 14 (R,R monatin dose response curve). The above-mentioned sweetness intensities for S,S and R,R monatin (i.e., approximately 50-200 times sweeter and approximately 2000-2400 times sweeter than sucrose by weight, respectively) were determined at approximately 8% SEV.

[2] = Taste profiling of lemon/lime carbonates and colas; settings: HFCS 10%, aspartame 500 ppm, sucralose 200 ppm, blends 30.8 ppm/5.0%; for Average Score: score 1, poor-5, good, sucrose 10%
Method: Cola and lemon/lime beverages were prepared using the following formulations and sweetened with sucrose, HFCS (55% fructose), aspartame, sucralose, monatin (racemic mix described in Example 14), monatin/sucrose, or monatin/HFCS. One part of syrup was added to 5.5 parts carbonated water and evaluated.
Assessments were carried out ‘double blind’ by a panel of trained tasters. The sucrose-sweetened product was identified as the control and all other products randomly coded. Panelists were asked to assess the randomly coded sample relative to the control for the following attributes:
Panelists also were asked assign a score (1; poor-5; good) for the quality of the sweetener system. A summary of the comments generated together with the average score awarded is presented in Tables 12 and 13 for lemon/lime carbonates and colas, respectively. […] Blends of monatin/carbohydrate rated higher. In the cola, monatin was similar to aspartame.

[3] = Sensory evaluation of soft drinks (lemon/lime, orangeade, cola)
Method: Beverages (cola, lemon-lime and orange) were formulated and sweetened with aspartame, sucralose or R,R monatin. Qualitative evaluation was carried out.
The term “throw” refers to dilution in water. For example, a throw of “1+4” means 1 part concentrate formulation to 4 parts water. Thus, if a concentrate formulation includes 0.021% wt/vol (i.e., 210 ppm) of R,R monatin, for example, a throw of 1+4 makes a diluted beverage containing 42 ppm (210 ppm/5) R,R monatin.
Final ready-to-drink beverages (after throw) contained sweetener concentrations as follows:
Evaluation of these soft drinks was carried out by a panel (n=6) of assessors who evaluated each set of drinks on separate tasting occasions.

[4] = Time intensity profile in a soft drink system; settings: 80 ppm monatin, 10.0% sucrose, 200 ppm sucralose, pH 3.2 model soft drink; for Intensity of Maximum Sweetness: scale 0-100
Method: Solutions of 80 ppm monatin (racemic mix of monatin described in Example 14), 10.0% (w/v) sucrose and 200 ppm sucralose were prepared in the pH 3.2 model soft drink system described in Example 14. The time intensity profile of these solutions then was assessed using the following procedure. Six panelists were included in the study. These panelists were screened for their general sensory acuity and selected for their sensitivity to sweetness intensity and sweetness quality differences. All were experienced in methods of sweetener assessment and had received special training in time intensity evaluations. Training sessions were carried out initially to familiarize the panel with the method of evaluation and scoring the samples over time using a computerized data entry system.
Samples of each solution (13 mL) were coded and presented individually to panelists, in random order. For each panelist, immediately after swallowing, the computer recorded timed intensity readings on the scale of 0-100 each second, up to 60 seconds. Each solution was evaluated in duplicate.

[5] = Sensory evaluation of sweeteners in coffee and iced tea; settings: 200 mL serving
Method: Monatin sweetener formulations, comprising R,R monatin or R,R monatin/erythritol combinations, were assessed relative to other known sweeteners (aspartame and sucralose) in coffee and iced tea. The key sensory parameters assessed included sweetness quality, aftertaste, bitter taste and its aftertaste. Qualitative evaluation was carried out.
Standard coffee was used in which to evaluate sweetener performance (Table 17).
Sweeteners were added to coffee at the following concentrations:
An ice tea formulation was developed to evaluate sweetener performance (Table 18).
Sweeteners were added to tea at the following concentrations:
The evaluation of these coffee and tea drinks was carried out by a panel (n=6) of experienced sensory evaluators who evaluated the coffee products on one tasting occasion and the tea products on a subsequent occasion.

[6] = Taste profiling of monatin/carbohydrate blends
Method: The quality of equisweet monatin/carbohydrate (50:50) blends then was assessed relative to sucrose by a small panel of trained assessors. This evaluation was carried out “double blind.” The sucrose-sweetened system was identified as the control and all other products randomly coded. Panelists were asked to assess the randomly coded sample relative to the control for the following attributes: Sweetness Profile: Onset, build and decay; Flavor Profile: Acidity, bitterness and other characteristics; Mouthfeel; and Aftertaste. Panelists also were asked to assign a score (1; poor-5; good) for the quality of the sweetener system. A summary of the comments made and scores given is presented as Table 10.

[7] = cola, sucrose 10% (control), monatin 80 ppm
[8] = lemon/lime carbonate, sucrose 10% (control), monatin 67 ppm
[9] = lemon/lime carbonate, monatin 67 ppm
[10] = equisweet monatin/carbohydrate (50:50) blends relative to sucrose control

| SMILES | times sweeter than sucrose by weight [1] | Flavor Profile [2, 7] | Aftertaste [2, 8] | Flavor Profile [2, 8] | Average Score ([2]; cola, monatin 80 ppm) | Average Score [2, 9] | Area Under Curve [4] [unit × s] | Rate of Decline [4] [unit/s] | Rate of Onset [4] [unit/s] | Time for Sweetness to Decline to Half Maximum Value [4] [s] | Time to Half Maximum Sweetness [4] [s] | Time to Maximum Sweetness [4] [s] | Intensity of Maximum Sweetness [4] [unit] | also measured |
| --- | --- | --- | --- | --- | --- | --- | --- | --- | --- | --- | --- | --- | --- | --- |
| NC(CC(O)(Cc1c[nH]c2ccccc12)C(=O)O)C(=O)O (stereo not drawn) [R,R monatin, 2-hydroxy-2-(indol-3-ylmethyl)-4-aminoglutaric acid] | 2000-2400 times | – | – | – | – | – | – | – | – | – | – | – | – | times sweeter than sucrose by weight ([1]; listed as R,R): 2000-2400 times; times sweeter than sucrose by weight ([1]; listed as R,R stereoisomer): 2000-2400 times |
| NC(CC(O)(Cc1c[nH]c2ccccc12)C(=O)O)C(=O)O (stereo not drawn) [S,S monatin, 2-hydroxy-2-(indol-3-ylmethyl)-4-aminoglutaric acid] | 50-200 times | – | – | – | – | – | – | – | – | – | – | – | – | times sweeter than sucrose by weight ([1]; listed as S,S): 50-200 times; times sweeter than sucrose by weight ([1]; listed as S,S stereoisomer): 50-200 times |
| OC[C@H]1O[C@H](O[C@]2(CCl)O[C@H](CCl)[C@@H](O)[C@@H]2O)[C@H](O)[C@@H](O)[C@H]1Cl [Sucralose, sucralose] | – | Sweet flavor, slightly | Slight licorice note | Zesty and refreshing | 3.8 | 4.1 | 119.7 | 2.1 | 16.0 | 33.1 | 2.6 | 8.0 | 64.6 | Aftertaste [2, 7]: Some sweetness; Mouthfeel [2, 7]: Slightly thinner than; Comments (sensory evaluation) ([3]; Cola, aspartame 550 ppm, sucralose 220 ppm, R,R monatin 45 ppm): Delay in sweetness onset means first; Comments (sensory evaluation) ([3]; Lemon/lime soft drink, aspartame 500 ppm, sucralose 200 ppm, R,R monatin 42 ppm): Slow sweetness onset allows stronger; Comments (sensory evaluation) ([3]; Orangeade, aspartame 550 ppm, sucralose 220 ppm, R,R monatin 45 ppm): Delay in sweetness onset means first; Comments (sensory evaluation) ([5]; Coffee, aspartame 250 ppm, sucralose 82 ppm, R,R monatin 25 ppm + maltodextrin or erythritol (1 g, 0.5%)): Slow sweetness onset allows stronger; Comments (sensory evaluation) ([5]; Iced Tea, aspartame 450 ppm, sucralose 170 ppm, R,R monatin 40 ppm + maltodextrin or erythritol (1 g, 0.5%)): Delay in sweetness onset means first |
| OC[C@H]1O[C@@](CO)(O[C@H]2O[C@H](CO)[C@@H](O)[C@H](O)[C@H]2O)[C@@H](O)[C@@H]1O [Sucrose, sucrose] | – | Sweet, rounded, warm | Slight bitterness and | Soft, balanced | 4.5 | 4.8 | 116.9 | 2.3 | 17.9 | 24.9 | 2.3 | 8.0 | 64.1 | Aftertaste [6, 10]: Slight lingering; Flavor Profile [6, 10]: Pleasant, citrus; Mouthfeel [6, 10]: Full, syrupy; Sweetness Profile [6, 10]: Fast onset and build; Average Score ([6]; score 1, poor-5, good, equisweet monatin/carbohydrate (50:50) blends, sucrose control): 4.0 |

Source: patent publication US20050106305A1, “Beverage compositions comprising monatin and methods of making same” (Cargill, Inc., priority 2003, published 2005)
